Data reported in patent publication US20250320194A1, “PHARMACEUTICALLY ACCEPTABLE SALT AND CRYSTAL FORM OF FUSED PYRIDINE RING DERIVATIVE AND PREPARATION METHOD THEREFOR” (Jiangsu Hengrui Pharmaceuticals Co., Ltd., priority 2021, published 2025).

Experiments:
[1] = Long-term/accelerated stability; conditions: for physical and chemical stability (conclusion): long-term accelerated stability conditions for 6 months
[2] = Stability under influencing factors (high temperature, high humidity, open, 30 days)
[3] = Hygroscopicity of salt crystal forms (DVS, 25° C.); format: physicochemical; conditions: for Hygroscopicity 0.0% RH-95.0% RH / Hygroscopicity 20.0% RH-80.0% RH: DVS, 25° C.; for Crystal form: after DVS
Procedure: The test adopts SMS DVS Advantage, at 25° C., with a humidity range of 0 to 95% and a step of 10%. The judgment standard is that the dM/dT of each gradient mass change is less than 0.002%, TMAX is 360 minutes, and the cycle is two times. • 5. Cation chromatography • Instrument model: DIONEX AQUION ion chromatograph, USA • Detection method: conductivity; separation column: IonPac CS16-CG16 • Eluent: MSA 20Mm • Flow rate: 1.0 ml/min • 6. Anion chromatography • Instrument model: DIONEX INTEGRION HPIC ion chromatograph, USA • Detection method: conductivity; separation column: DionexIonPac™-AS11-HC • Eluent: EGC-500-KOH • Flow rate: 1.5 ml/min
Using Surface Measurement Systems advantage, at 25° C., the humidity starts from 50%, the humidity range is 0% to 95%, the step is 10%. The judgment standard was that the dM/dT of each gradient mass change is less than 0.002%, TMAX360 min, and the cycle was two times. The hygroscopicity of different salt crystal forms of the compound of formula I was investigated respectively.

`CC(C)(C#Cc1nc(C(Cc2cc(F)cc(F)c2)NC(=O)Cn2nc(C(F)(F)F)c3c2C(F)(F)C2CC32)c(-c2ccc(Cl)c3c([N-]S(C)(=O)=O)nn(CC(F)(F)F)c23)c2c1CCC2)S(C)(=O)=O.[Na+]` (centres unmarked) [Crystal form III of the sodium salt] showed a Purity % ([1]; 4° C., 1 month) of 98.25%, a Purity % ([1]; 4° C., 2 months) of 98.26% and a Purity % ([1]; 4° C., 3 months) of 98.24%. For the same molecule, the Purity % ([1]; 4° C., 6 months) was 98.28%, the Purity % ([1]; 4° C., Start) was 98.32% and the “physical and chemical stability (conclusion)” value [1] was “good physical and chemical stability”. For the same molecule, the “physical and chemical stability (conclusion)” value ([2]; 40° C., 60° C., 75% RH and 92.5% RH) was “good physical and chemical stability”, the “Color, properties” value ([2]; 40° C., 5 days) was “White solid” and the Crystal form ([2]; 40° C., 5 days) was “Unchanged”. The Purity % ([2]; 40° C., 5 days) was 97.98%, the “Color, properties” value ([2]; 40° C., 10 days) was “White solid” and the Crystal form ([2]; 40° C., 10 days) was “Unchanged”. For the same molecule, the Purity % ([2]; 40° C., 10 days) was 98.10%, the “Color, properties” value ([2]; 40° C., 30 days) was “White solid” and the Crystal form ([2]; 40° C., 30 days) was “Unchanged”. For the same molecule, the Purity % ([2]; 40° C., 30 days) was 98.06%, the “Color, properties” value ([2]; 60° C., 5 days) was “White solid” and the Crystal form ([2]; 60° C., 5 days) was “Unchanged”. For the same molecule, the Purity % ([2]; 60° C., 5 days) was 98.05%, the “Color, properties” value ([2]; 60° C., 10 days) was “White solid” and the Crystal form ([2]; 60° C., 10 days) was “Unchanged”. The Purity % ([2]; 60° C., 10 days) was 98.08%, the “Color, properties” value ([2]; 60° C., 30 days) was “White solid” and the Crystal form ([2]; 60° C., 30 days) was “Unchanged”. The Purity % ([2]; 60° C., 30 days) was 97.99%, the “Color, properties” value ([2]; 75% RH, 5 days) was “White solid” and the Crystal form ([2]; 75% RH, 5 days) was “Unchanged”. The Purity % ([2]; 75% RH, 5 days) was 98.08%, the “Color, properties” value ([2]; 75% RH, 10 days) was “White solid” and the Crystal form ([2]; 75% RH, 10 days) was “Unchanged”. The Purity % ([2]; 75% RH, 10 days) was 98.10%, the “Color, properties” value ([2]; 75% RH, 30 days) was “White solid” and the Crystal form ([2]; 75% RH, 30 days) was “Unchanged”. For the same molecule, the Purity % ([2]; 75% RH, 30 days) was 98.00%, the “Color, properties” value ([2]; 92.5% RH, 5 days) was “White solid” and the Crystal form ([2]; 92.5% RH, 5 days) was “Unchanged”. The Purity % ([2]; 92.5% RH, 5 days) was 97.94%, the “Color, properties” value ([2]; 92.5% RH, 10 days) was “White solid” and the Crystal form ([2]; 92.5% RH, 10 days) was “Unchanged”. For the same molecule, the Purity % ([2]; 92.5% RH, 10 days) was 97.94%, the “Color, properties” value ([2]; 92.5% RH, 30 days) was “White solid” and the Crystal form ([2]; 92.5% RH, 30 days) was “Unchanged”. For the same molecule, the Purity % ([2]; 92.5% RH, 30 days) was 97.89%, the “Color, properties” value ([2]; Start, 0 days) was “White solid” and the Purity % ([2]; Start, 0 days) was 98.23%. The “Hygroscopicity 0.0% RH-95.0% RH” value [3] was 2.04%, the “Hygroscopicity 20.0% RH-80.0% RH” value [3] was 0.73% and the Crystal form [3] was “Unchanged”.

`CC(C)(C#Cc1nc(C(Cc2cc(F)cc(F)c2)NC(=O)Cn2nc(C(F)(F)F)c3c2C(F)(F)C2CC32)c(-c2ccc(Cl)c3c(NS(C)(=O)=O)nn(CC(F)(F)F)c23)c2c1CCC2)S(C)(=O)=O.O=S(=O)(O)O` (centres unmarked) [Crystal form A of hydrosulfate] showed a Purity % ([1]; 4° C., 1 month) of 99.09%, a Purity % ([1]; 4° C., 2 months) of 99.08% and a Purity % ([1]; 4° C., 3 months) of 99.08%. The Purity % ([1]; 4° C., 6 months) was 99.09%, the Purity % ([1]; 4° C., Start) was 99.09% and the Purity % ([1]; 25° C., 60% RH, 1 month) was 99.01%. It also gave a Purity % ([1]; 25° C., 60% RH, 2 months) of 98.99%, a Purity % ([1]; 25° C., 60% RH, 3 months) of 99.03% and a Purity % ([1]; 25° C., 60% RH, 6 months) of 98.91%. For the same molecule, the Purity % ([1]; 25° C., 60% RH, Start) was 99.09%, the Purity % ([1]; 40° C., 75% RH, 1 month) was 98.83% and the Purity % ([1]; 40° C., 75% RH, 2 months) was 98.99%. The Purity % ([1]; 40° C., 75% RH, 3 months) was 98.98%, the Purity % ([1]; 40° C., 75% RH, 6 months) was 98.76% and the Purity % ([1]; 40° C., 75% RH, Start) was 99.09%. The “physical and chemical stability (conclusion)” value [1] was “good physical and chemical stability”, the “physical stability (conclusion)” value ([2]; 40° C., 60° C., 7500 RH and 92.5% RH, crystal form not transformed) was “good physical stability” and the “chemical stability (conclusion)” value ([2]; 40° C., 7500 RH and 92.5%0 RH, not at high temperature (60° C.)) was “good chemical stability”. The “Color, properties” value ([2]; 40° C., 5 days) was “White solid”, the Crystal form ([2]; 40° C., 5 days) was “Unchanged” and the Purity % ([2]; 40° C., 5 days) was 99.06%. For the same molecule, the “Color, properties” value ([2]; 40° C., 10 days) was “White solid”, the Crystal form ([2]; 40° C., 10 days) was “Unchanged” and the Purity % ([2]; 40° C., 10 days) was 99.01%. For the same molecule, the “Color, properties” value ([2]; 40° C., 30 days) was “White solid”, the Crystal form ([2]; 40° C., 30 days) was “Unchanged” and the Purity % ([2]; 40° C., 30 days) was 99.03%. The “Color, properties” value ([2]; 60° C., 5 days) was “White solid”, the Crystal form ([2]; 60° C., 5 days) was “Unchanged” and the Purity % ([2]; 60° C., 5 days) was 96.46%. The “Color, properties” value ([2]; 60° C., 10 days) was “White solid”, the Crystal form ([2]; 60° C., 10 days) was “Unchanged” and the Purity % ([2]; 60° C., 10 days) was 96.22%. For the same molecule, the “Color, properties” value ([2]; 60° C., 30 days) was “White solid”, the Crystal form ([2]; 60° C., 30 days) was “Unchanged” and the Purity % ([2]; 60° C., 30 days) was 95.17%. The “Color, properties” value ([2]; 75% RH, 5 days) was “White solid”, the Crystal form ([2]; 75% RH, 5 days) was “Unchanged” and the Purity % ([2]; 75% RH, 5 days) was 99.11%. The “Color, properties” value ([2]; 75% RH, 10 days) was “White solid”, the Crystal form ([2]; 75% RH, 10 days) was “Unchanged” and the Purity % ([2]; 75% RH, 10 days) was 99.11%. The “Color, properties” value ([2]; 75% RH, 30 days) was “White solid”, the Crystal form ([2]; 75% RH, 30 days) was “Unchanged” and the Purity % ([2]; 75% RH, 30 days) was 99.05%. The “Color, properties” value ([2]; 92.5% RH, 5 days) was “White solid”, the Crystal form ([2]; 92.5% RH, 5 days) was “Unchanged” and the Purity % ([2]; 92.5% RH, 5 days) was 99.18%. For the same molecule, the “Color, properties” value ([2]; 92.5% RH, 10 days) was “White solid”, the Crystal form ([2]; 92.5% RH, 10 days) was “Unchanged” and the Purity % ([2]; 92.5% RH, 10 days) was 99.02%. For the same molecule, the “Color, properties” value ([2]; 92.5% RH, 30 days) was “White solid”, the Crystal form ([2]; 92.5% RH, 30 days) was “Unchanged” and the Purity % ([2]; 92.5% RH, 30 days) was 99.07%. For the same molecule, the “Color, properties” value ([2]; Start, 0 days) was “White solid”, the Purity % ([2]; Start, 0 days) was 99.09% and the “Hygroscopicity 0.0% RH-95.0% RH” value [3] was 4.55%. The “Hygroscopicity 20.0% RH-80.0% RH” value [3] was 1.59% and the Crystal form [3] was “Unchanged”.
